In ChEMBL document CHEMBL1201862, “PubChem BioAssay data set” (2004):
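Interpolation was linear, between the two tested concentrations surrounding the appropriate level; five concentrations were tested over 48 hours in 96-well plates. Here, GI50 denotes the concentration required for 50% inhibition of growth.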 Active and inactive are the calls of the source. Rule as the data show it: active = GI50 up to about 1.1 µM and inactive = higher.

Columns and labels:
Test in all cases: NCI tumour cell line growth inhibition, 48 h
[1] = system: A549
[2] = system: CCRF-CEM
[3] = system: COLO 205
[4] = system: EKVX
[5] = system: HOP-62
[6] = system: IGROV-1
[7] = system: LOX IMVI
[8] = system: MDA-MB-435
[9] = system: MOLT-4
[10] = system: NCI-H522
[11] = system: OVCAR-4
[12] = system: PC-3
[13] = system: SK-MEL-28
[14] = system: SK-OV-3
[15] = system: SN12C
[16] = system: SNB-19
[17] = system: SW-620
[18] = system: TK-10
[19] = system: U-251
[20] = system: KM-20L2

| Compound | GI50 [1] | GI50 [2] | GI50 [3] | GI50 [4] | GI50 [5] | GI50 [6] | GI50 [7] | GI50 [8] | GI50 [9] | GI50 [10] | GI50 [11] | GI50 [12] | GI50 [13] | GI50 [14] | GI50 [15] | GI50 [16] | GI50 [17] | GI50 [18] | GI50 [19] | GI50 [20] |
| --- | --- | --- | --- | --- | --- | --- | --- | --- | --- | --- | --- | --- | --- | --- | --- | --- | --- | --- | --- | --- |
| CCOC(=O)C(NCc1ccccc1)(NC(=O)c1ccccc1)C(F)(F)F (stereo not given) | > 100 µM (inactive) | 24.2 µM (inactive) | > 100 µM (inactive) | 82.4 µM (inactive) | > 100 µM (inactive) | > 100 µM (inactive) | 95.1 µM (inactive) | > 100 µM (inactive) | 32.3 µM (inactive) | 35.6 µM (inactive) | 45.3 µM (inactive) | > 100 µM (inactive) | > 100 µM (inactive) | > 100 µM (inactive) | > 100 µM (inactive) | > 100 µM (inactive) | 43.6 µM (inactive) | > 100 µM (inactive) | > 100 µM (inactive) |  |
| Cc1cc(OCC(O)CO)ccc1-c1ccccc1 (stereo not given) | > 100 µM (inactive) | 35 µM (inactive) | 61 µM (inactive) | 80.2 µM (inactive) |  | > 100 µM (inactive) |  |  | > 100 µM (inactive) | > 100 µM (inactive) | > 100 µM (inactive) |  | > 100 µM (inactive) |  | > 100 µM (inactive) | > 100 µM (inactive) | 6.65 µM (inactive) | > 100 µM (inactive) | 54.3 µM (inactive) | > 100 µM (inactive) |
| CC1(C)CC(=O)C(=CNC(N)=S)C(=O)C1 | > 100 µM (inactive) | > 100 µM (inactive) | > 100 µM (inactive) | > 100 µM (inactive) | > 100 µM (inactive) | > 100 µM (inactive) | > 100 µM (inactive) | > 100 µM (inactive) | > 100 µM (inactive) | > 100 µM (inactive) | > 100 µM (inactive) | > 100 µM (inactive) | > 100 µM (inactive) | > 100 µM (inactive) | > 100 µM (inactive) | > 100 µM (inactive) | > 100 µM (inactive) | > 100 µM (inactive) | > 100 µM (inactive) |  |
| CC(C)[C@H](NC(=O)[C@H](N)Cc1ccc(N(CCCl)CCCl)cc1)C(=O)O | > 100 µM (inactive) | 78.7 µM (inactive) | > 100 µM (inactive) | > 100 µM (inactive) | > 100 µM (inactive) | > 100 µM (inactive) | > 100 µM (inactive) | > 100 µM (inactive) | 29.3 µM (inactive) | > 100 µM (inactive) | > 100 µM (inactive) | > 100 µM (inactive) | > 100 µM (inactive) | > 100 µM (inactive) | > 100 µM (inactive) | > 100 µM (inactive) | > 100 µM (inactive) | > 100 µM (inactive) | > 100 µM (inactive) |  |
| CC(=O)NC1(c2cc3ccccc3s2)CCCCCC1 | 38.9 µM (inactive) | 20.7 µM (inactive) | 22 µM (inactive) | 19.1 µM (inactive) | 46.7 µM (inactive) | 66.4 µM (inactive) | 47.9 µM (inactive) | 35.5 µM (inactive) | 18.5 µM (inactive) | 20.7 µM (inactive) | 38.5 µM (inactive) | 27.4 µM (inactive) | 54 µM (inactive) | 37.1 µM (inactive) | 42.3 µM (inactive) | 74.5 µM (inactive) | 47.1 µM (inactive) | 47.5 µM (inactive) | 40.8 µM (inactive) |  |
| CO[C@]12CC(=O)C3(C(C[C@H]4CC5CCC6=CC(=O)CC[C@]6(OC(C)=O)C5C[C@@]43C)C1)C1C[C@H]3[C@@H]4CCC5=CC(=O)CC[C@]5(OC(C)=O)[C@H]4CC[C@]3(C)C12 (stereo not given in full) | > 100 µM (inactive) | > 100 µM (inactive) | 19.7 µM (inactive) | > 100 µM (inactive) | > 100 µM (inactive) | > 100 µM (inactive) | > 100 µM (inactive) | > 100 µM (inactive) | > 100 µM (inactive) | > 100 µM (inactive) | > 100 µM (inactive) | > 100 µM (inactive) | > 100 µM (inactive) | > 100 µM (inactive) | > 100 µM (inactive) | > 100 µM (inactive) | > 100 µM (inactive) | > 100 µM (inactive) | > 100 µM (inactive) |  |
| O=[N+]([O-])/C=C/c1cc2ccccc2[nH]1 | 17.5 µM (inactive) | 2.99 µM (inactive) | 17.2 µM (inactive) | 29.2 µM (inactive) | 16.5 µM (inactive) | 12.2 µM (inactive) | 14.2 µM (inactive) | 2.59 µM (inactive) | 15.2 µM (inactive) | 9.35 µM (inactive) | 14.1 µM (inactive) | 15.2 µM (inactive) | 25.4 µM (inactive) | 16.9 µM (inactive) | 17.7 µM (inactive) | 17.5 µM (inactive) | 8.83 µM (inactive) | 17.5 µM (inactive) | 12.4 µM (inactive) |  |
| CCOC(=O)c1c(N2CCCC2)nsc1Nc1ccc(F)cc1 | 27.9 µM (inactive) | 28.1 µM (inactive) | 48.5 µM (inactive) | 8.38 µM (inactive) | 63.5 µM (inactive) | 55 µM (inactive) | 53.7 µM (inactive) | 28.8 µM (inactive) | 23.9 µM (inactive) | 33.5 µM (inactive) | 64.4 µM (inactive) | 20.4 µM (inactive) | 54.3 µM (inactive) | 41 µM (inactive) | 36.3 µM (inactive) | > 100 µM (inactive) | 40.4 µM (inactive) | 57.7 µM (inactive) | 41.9 µM (inactive) |  |
| Nc1nc(Cl)c(N)c(NCC2(CO)CC(CCCc3ccccc3)C2)n1 (stereo not given) | 15.5 µM (inactive) | 0.0451 µM (active) | 16 µM (inactive) | 0.223 µM (active) | 59.2 µM (inactive) | 21.6 µM (inactive) | 16.7 µM (inactive) | 11.6 µM (inactive) | 5.07 µM (inactive) | 0.121 µM (active) | > 33.7 µM (inactive) | 17.9 µM (inactive) | 47.1 µM (inactive) | > 100 µM (inactive) | 62.7 µM (inactive) | > 55.5 µM (inactive) | 40.1 µM (inactive) | 56.2 µM (inactive) | 34.3 µM (inactive) |  |
| CN(C)CC(C)(C)C(=O)/C=C/c1ccccc1 | 28.8 µM (inactive) | 3.39 µM (inactive) | 13.3 µM (inactive) | 17.6 µM (inactive) | 28.4 µM (inactive) | 12.9 µM (inactive) | 11.2 µM (inactive) |  | 14.4 µM (inactive) | 10.3 µM (inactive) | 14.2 µM (inactive) |  | 16 µM (inactive) |  | 13.3 µM (inactive) | 15.8 µM (inactive) | 14.5 µM (inactive) | 18.2 µM (inactive) | 16.3 µM (inactive) | 15.3 µM (inactive) |
| C=CCOC(=O)/C(=C\c1ccc(OC)c(OC)c1)c1ccc(OC)c(OC)c1 | 61.7 µM (inactive) | 30.8 µM (inactive) | 27.5 µM (inactive) | 88.5 µM (inactive) | > 100 µM (inactive) | > 100 µM (inactive) | > 10 µM (inactive) | 56 µM (inactive) | 15.6 µM (inactive) | > 100 µM (inactive) | > 10 µM (inactive) | 33.1 µM (inactive) | 33.1 µM (inactive) | > 100 µM (inactive) | > 100 µM (inactive) | 59 µM (inactive) | 54.1 µM (inactive) | 61.2 µM (inactive) | 52.4 µM (inactive) |  |
| C[C@@H]1C(=O)C[C@H]2C(C)(C)CCC[C@]2(C)[C@@]1(O)CCc1ccoc1 | > 100 µM (inactive) | > 100 µM (inactive) | > 100 µM (inactive) | > 100 µM (inactive) | > 100 µM (inactive) | 57.4 µM (inactive) | > 100 µM (inactive) | > 100 µM (inactive) | 80.4 µM (inactive) | 66.4 µM (inactive) | > 100 µM (inactive) | > 100 µM (inactive) | > 100 µM (inactive) | > 100 µM (inactive) | > 100 µM (inactive) | > 100 µM (inactive) | > 100 µM (inactive) | > 100 µM (inactive) | > 100 µM (inactive) |  |
| CC(C)(C)c1cc(C2=NN(c3ccccc3)C(c3ccccc3)C2)cc(C(C)(C)C)c1O (stereo not given) | > 100 µM (inactive) | 19.1 µM (inactive) | 35.7 µM (inactive) | > 100 µM (inactive) | > 100 µM (inactive) | > 100 µM (inactive) | > 100 µM (inactive) | > 100 µM (inactive) | > 100 µM (inactive) | > 100 µM (inactive) | > 100 µM (inactive) | > 100 µM (inactive) | > 100 µM (inactive) | > 100 µM (inactive) | > 100 µM (inactive) | > 100 µM (inactive) | > 100 µM (inactive) | > 100 µM (inactive) | > 100 µM (inactive) |  |
| CC(C)N(CCCNc1c2ccccc2nc2cccc([N+](=O)[O-])c12)C(C)C | < 0.0104 µM (active) | < 0.0173 µM (active) | 0.0101 µM (active) | < 0.015 µM (active) | < 0.0191 µM (active) | < 0.0385 µM (active) | < 0.0206 µM (active) | < 0.0125 µM (active) | < 0.0134 µM (active) | 0.0104 µM (active) | 0.0246 µM (active) | < 0.0203 µM (active) | < 0.01 µM (active) | < 0.0326 µM (active) | < 0.0165 µM (active) | < 0.0224 µM (active) | < 0.01 µM (active) | < 0.0205 µM (active) | < 0.0163 µM (active) |  |
| COc1cc(C)c2c(c1C)OC(=O)c1c(C)c(Cl)c(O)c(C=O)c1O2 | 12.8 µM (inactive) | 9.18 µM (inactive) | 29.2 µM (inactive) | 10.3 µM (inactive) | 20.3 µM (inactive) | 24.2 µM (inactive) | 16 µM (inactive) |  | 9.79 µM (inactive) |  |  |  |  | 23.4 µM (inactive) | 21.8 µM (inactive) | 19.1 µM (inactive) | 31.8 µM (inactive) | 29 µM (inactive) | 6.41 µM (inactive) | 22.6 µM (inactive) |
